Measured values: ChEMBL document CHEMBL4052676, “Anti-diabetic xanthones from the bark of Garcinia xanthochymus” (Bioorg Med Chem Lett, 2017)

What was measured:
[1] = Inhibition of Saccharomyces cerevisiae alpha-glucosidase pre-incubated for 10 mins before p-nitrophenyl […]-D-glucopyranoside substrate addition and measured every 30 secs for 35 mins post substrate addition
[2] = target: T1, Tyrosine-protein phosphatase non-receptor type 1 (Homo sapiens, UniProt P18031); test: Inhibition of human recombinant PTP1B pre-incubated for 10 mins before pnitrophenyl phosphate substrate addition and measured every 30 secs for 10 mins
T1 sequence (P18031 whole entry): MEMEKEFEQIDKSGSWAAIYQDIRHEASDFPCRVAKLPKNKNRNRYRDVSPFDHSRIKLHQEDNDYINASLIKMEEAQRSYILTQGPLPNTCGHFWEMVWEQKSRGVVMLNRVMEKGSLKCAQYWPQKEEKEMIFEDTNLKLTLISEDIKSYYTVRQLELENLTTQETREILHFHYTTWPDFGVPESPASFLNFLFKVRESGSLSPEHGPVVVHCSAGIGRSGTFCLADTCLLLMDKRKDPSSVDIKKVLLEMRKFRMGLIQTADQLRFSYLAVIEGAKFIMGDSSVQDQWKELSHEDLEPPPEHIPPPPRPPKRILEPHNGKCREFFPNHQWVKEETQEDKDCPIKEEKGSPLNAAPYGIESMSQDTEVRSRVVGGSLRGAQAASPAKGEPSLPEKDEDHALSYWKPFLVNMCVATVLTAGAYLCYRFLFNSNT

| Compound | IC50 [1] | IC50 ([2]; read-out: IC50) | IC50 ([1]; read-out: IC50) | IC50 [2] |
| --- | --- | --- | --- | --- |
| O=c1c2cc(O)ccc2oc2cccc(O)c12 | Not Active | 150 µM |  |  |
| C=CC(C)(C)c1cc(O)c(O)c2c(=O)c3cc4ccoc4c(O)c3oc12 |  | 45.2 µM | 134 µM |  |
| C=CC(C)(C)c1cc(O)c(O)c2c(=O)c3cccc(O)c3oc12 |  | 73.2 µM | 29.8 µM |  |
| C=CC(C)(C)c1cc(O)c(O)c2c(=O)c3cc4c(c(O)c3oc12)OC(C)(C)C=C4 | Not Active | 49.4 µM |  |  |
| O=c1c2cc(O)ccc2oc2ccc(O)c(O)c12 |  | 120 µM | 31.4 µM |  |
| O=c1c2cccc(O)c2oc2c(O)ccc(O)c12 |  | 148 µM | 358 µM |  |
| COc1c(O)cc2oc3cc4occc4c(O)c3c(=O)c2c1C/C=C(\C)CCC=C(C)C |  | 55.1 µM | 94.2 µM |  |
| C=CC(C)(C)c1cc(O)c2oc3c(O)c4c(cc3c(=O)c2c1O)C=CC(C)(C)O4 |  | 8 µM | 36.7 µM |  |
| C=CC(C)(C)c1cc(O)c2oc3c(O)c4occc4cc3c(=O)c2c1O |  | 26.8 µM | 142 µM |  |
| C=CC(C)(C)c1cc(O)c(O)c2c(=O)c3ccc(O)c(O)c3oc12 |  | 85.5 µM | 27.5 µM |  |
| C=CC(C)(C)c1cc(O)c2oc3c(O)cccc3c(=O)c2c1O |  |  | 85.5 µM | Not Active |
| C=CC(C)(C)c1cc(O)c2oc3c(O)c(O)ccc3c(=O)c2c1O |  | 53 µM | 4.1 µM |  |
| C[C@H]1O[C@H](O[C@H]2[C@H](O)[C@@H](O)[C@@H](O[C@H]3[C@H](O)[C@@H](O)C(O)O[C@@H]3CO)O[C@@H]2CO)[C@H](O)[C@@H](O)[C@@H]1N[C@H]1C=C(CO)[C@@H](O)[C@H](O)[C@H]1O (stereo not given in full) [ACARBOSE] |  |  | 900 µM |  |
